Measured values as given in US20070027175A1, “Antineoplastic activities of ellipticine and its derivatives” (priority 2005, published 2007).

Key:
Assay type in all cases: cell-based, human
U266 cells [1] = experiment: Flow cytometry cell cycle arrest (DNA-Prep); conditions: 12 hours; EPED3 2 μM, Velcade 0.5 μM
Procedure: (§1) FIGS. 14A-14L show flowcytometry analyses of cell viability and cell cycle arrest under EPED3 and Velcade treatments. U266 cells were co-cultured without contact with human fetal bone mesenchymal cells. Cells were untreated (Control; FIGS. 14A, 14D, 14G, 14J) or exposed to […] (FIGS. 14B, 14E, 14H, 14K) or […] (FIGS. 14C, 14F, 14I, 14L) for 12 hours and then harvested. Pan-caspase inhibitor Z-VAD-FMK ([…]) was also added to co-cultures (FIGS. 14D-14F and FIGS. 14J-14L) to block caspase-dependent apoptosis and then analyzed for cell cycling arrest. Percent cells in G0+G1 and G2+M phases were measured by the peaks of DNA helix and are gated with each graph (FIGS. 14A-14F). Percent cells with fragmented DNA are indicated as c % in each graph. Cells were also analyzed for apoptotic status (FIGS. 14G-14L) using Coulter Annexin-V FITC/7-AAD kit. Untreated cells (Control; FIGS. 14G and 14J) were maintained at high viability (90%). Early apoptotic cells were gated at G4, and necrotic cells were gated at G2; percent cells in each population are indicated with each graph. The arrows indicate percent viable cells ingested EPED3, whose fluorescent property was captured at channel FL4 (FIGS. 14H, 14K).
Cell cycle arrest was measured using DNA-Prep Coulter Reagents kit (Beckman Coulter, Inc., Miami, Fla.). Myeloma cells were harvested from co-culture inserts and washed in phosphate buffered saline (PBS); 5×10^5 cells were stained according to the manufacturer's instructions. Samples were analyzed using EPICS XL-MCL flowcytometer equipped with EXPO32 ADC software (Beckman Coulter, Inc.).
(§2) To investigate the effects of EPED3 on apoptosis and cell cycle arrest of myeloma cells, U266 cells were exposed to EPED3 (2 μM) or Velcade (0.5 μM) in co-culture without direct contact with fetal human bone mesenchymal cells. Twelve hours after treatment, cells were harvested for using flow cytometry to detect ongoing apoptosis and cell cycle arrest.
The cell cycle arrest analysis was simultaneously performed to examine DNA helix in U266 cells at 12 hours. […] Furthermore, 7.2% of the EPED3-treated population was in G2+M phase as opposed to 25.4% of the control and 18.9% of Velcade-treated populations in the G2+M phase (FIG. 14A-14C).

U266 cells [2] = experiment: Flow cytometry apoptosis (Annexin V-FITC/7-AAD); conditions: 12 hours, EPED3 2 μM, Velcade 0.5 μM
Procedure: as §1
Apoptosis was detected using the Annexin V-fluorescein isothiocyanate (FITC)/7-AAD kit (Beckman Coulter, Inc.). Myeloma cells were harvested from co-culture inserts and washed in PBS; 5×10^5 cells were incubated on ice with 100 μl of binding buffer (10 μl Annexin V-FITC and 20 μl of 7-AAD) for 15 minutes. Samples were analyzed using EPICS XL-MCL flowcytometer equipped with EXPO32 ADC software (Beckman Coulter, Inc.).
as §2

U266 cells [3] = experiment: MTT dose response to anti-myeloma agents, U266; conditions: 24 and 48 hours
Procedure: FIGS. 12A-12B show dose response of myeloma cells to common anti-myeloma agents used in clinics. U266 was one of 4 myeloma cell lines exposed to a panel of anti-myeloma agents in 2-fold titration ([…]). MTT assays were performed to assess cell proliferation inhibition for 24 hours (FIG. 12A) and 48 hours (FIG. 12B). […] Error bars indicate standard deviation.
Myeloma cells were suspended in fresh medium at […] and seeded into 96-well plates in 50-μl aliquots (10,000 cells/well). After treating cells in each well with the appropriate compound (50-μl aliquots of 2× stock solution) and medium control, the methylthiazolyldiphenyl-tetrazolium bromide (MTT) assay kit (Promega, Madison, Wis.) was used to determine cell proliferation, according to manufacturer's instructions. Briefly, dye solution was added to each well (15 μl/well) and incubated for 4 hours at 37° C. and 5% CO2; 100 μl of the solubilization solution/stop mix was then added. The plates were read at 570 nm in a plate reader, and the A570 nm values were corrected by A650 nm. All experiments were conducted in triplicate.
In vitro comparison of EPED3 to ellipticine and four anti-myeloma agents commonly used in clinical treatment regimens was carried out with four myeloma cell lines (JJN3, L363, OCI-MY5, and U266). EPED3, ellipticine, Dox, dexamethasome, VP-16-213, and Velcade were applied in a two-fold dilution series ranging from 0.1 to 6.4 μM. Cell proliferation was assessed using MTT assays 24 and 48 hours after initiating treatments.

[4] = co-culture without direct contact
[5] = with pan-caspase inhibitor Z-VAD-FMK

| Compound | population in G0+G1 phase (U266 cells [1]) [%] | population in G2+M phase (U266 cells [1]) [%] | apoptotic cells (U266 cells [2]; [4]) [%] | necrotic cells (U266 cells [2]; [4]) [%] | apoptotic cells (U266 cells [2]; [5]) [%] | necrotic cells (U266 cells [2]; [5]) [%] | concentration with better efficacy on reduction of cell metabolic activity (U266 cells [3]; U266) [µM] | concentration at which cell proliferation stopped (U266 cells [3]; U266, MTT) [µM] | concentration of efficient killing of U266 cells (U266 cells [3]; without co-culture, MTT) |
| --- | --- | --- | --- | --- | --- | --- | --- | --- | --- |
| Cc1c2ccncc2c(C)c2c1[nH]c1ccc(OCCN(C)C)cc12 [NSC 338258, ellipticine, 9-dimethyl amino-ethoxy-] | 67.5 | 7.2 | 36 | 9.7 | 8.9 | 18.9 | ≥ 0.4 | 0.2 |  |
| CC(C)C[C@H](NC(=O)[C@H](Cc1ccccc1)NC(=O)c1cnccn1)B(O)O [Velcade, bortezomib, reference compound] | 59.8 | 18.9 | 20.6 | 31.3 | 25 | 2.8 |  |  | less than 0.1 μM |
